IC50 and Ki data for 38 compounds are collected here from patent US9732093B2, “FLAP modulators” (JANSSEN PHARMACEUTICA NV, priority 2013, dated 2017).

For orientation: IC50 means the concentration that gives 50% inhibition. Low values mean higher potency, high ones lower potency. Broadly, the Ki is the equilibrium dissociation constant of an inhibitor or competing ligand from its target.

Assay [1] deals with leukotriene pathway in human whole blood. The assay is described as follows: Human whole blood assay (LTB4 levels after A23187 stimulation). The class given is cell-based. The protocol:
(§1) The ability of the compounds of the present invention to treat a FLAP-mediated disease and/or disorder, or associated symptoms or complications thereof, was determined using the following procedures. Binding assay data represent the average value obtained from two different assay plates, with samples run in duplicate on each plate. Human whole blood assay data represent a single replicate on an assay plate using whole blood from at least one healthy donor.
An in vitro cellular assay was performed using human whole blood collected in heparin-containing tubes, which was used to test the ability of compounds to modulate the leukotriene pathway in human whole blood. The blood was diluted 1:1 in RPMI medium, pre-incubated for 15 min at 37° Celsius with test compounds at various concentrations, and then stimulated with calcium ionophore, A23187 (7 μg/mL), for 30 min at 37° Celsius. The samples were then centrifuged and plasma was removed. The plasma was diluted in assay buffer and LTB4 levels were measured using a commercial kit (Enzo Life Sciences). The concentration of each compound that was required for half-maximal inhibition (modulation) of recombinant enzyme activity (IC50) was calculated by a 4-parameter equation using the program GraphPad Prism (GraphPad software).

Assay [2] deals with human FLAP (Homo sapiens (Human), UniProt P20292). The experiment in a line: FLAP binding assay (HTRF format). To be noted: human FLAP wild type membranes, HTRF format; Table 6 (additional runs). The protocol:
as §1
Data are expressed as a HTRF ratio.
In general terms: In TR-FRET formats the signal depends on donor and acceptor labels being close together.

The mark [3] stands for this setting: blood diluted 1:1 in RPMI, 15 min pre-incubation, A23187 7 μg/mL for 30 min at 37° Celsius, plasma LTB4.

Structures can show the parent of a compound that is named as a salt.

human FLAP, sequence (P20292 whole entry): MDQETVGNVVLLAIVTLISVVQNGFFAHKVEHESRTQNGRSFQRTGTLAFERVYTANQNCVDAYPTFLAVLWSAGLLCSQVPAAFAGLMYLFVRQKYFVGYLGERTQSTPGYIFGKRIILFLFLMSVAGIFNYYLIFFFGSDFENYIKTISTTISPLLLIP

Consider “2-(4-Cyclobutyl-2-fluoro-3-{[4-(trifluoromethyl)benzyl]oxy}phenyl)-5H-pyrrolo[2,3-b]pyrazine trifluoroacetate salt [Example 177]”, for which the IC50 in assay [1] (setting [3]) came to 771 nM; in assay [1] (human whole blood diluted 1:1 in RPMI, A23187 stimulation, Table 6 (additional runs)) it was 892 nM.

“5-(4-Cyclobutyl-2-fluoro-3-hydroxyphenyl)pyridin-2-amine [Intermediate F]” yielded an IC50 in assay [1] (setting [3]) of 1300 nM.

The compound `CS(=O)(=O)c1ccnc(Oc2c(C3CCC3)ccc(-c3cnc(N)cn3)c2F)n1` [Example 95, 5-(4-Cyclobutyl-2-fluoro-3-{[4-(methylsulfonyl)pyrimidin-2-yl]oxy}phenyl)pyrazin-2-amine] yielded a Ki in assay [2] of 4.7 nM.

In turn, `COc1cc(Oc2c(C3CCC3)ccc(-c3cnc(N)cn3)c2F)nc(N)n1` [Example 99, 4-[3-(5-Aminopyrazin-2-yl)-6-cyclobutyl-2-fluorophenoxy]-6-methoxypyrimidin-2-amine] gave an inhibition constant (Ki) in assay [2] of 5.5 nM.

In assay [2], `COc1nc(N)cc(Oc2c(C3CCC3)ccc(-c3cnc(N)cn3)c2F)n1` [Example 100, 6-[3-(5-Aminopyrazin-2-yl)-6-cyclobutyl-2-fluorophenoxy]-2-methoxypyrimidin-4-amine] displayed a Ki of 1.2 nM.

As for `Nc1cnc(-c2ccc(C3CCC3)c(Oc3cccc(C(F)(F)F)n3)c2F)cn1` [Example 102, 5-(4-Cyclobutyl-2-fluor-3-{[6-(trifluoromethyl)pyridin-2-yl]oxy}phenyl)pyrazin-2-amine], the inhibition constant (Ki) in assay [2] was determined as 1.8 nM.

On to `Nc1cnc(-c2ccc(C3CCC3)c(Oc3ncc(C(F)(F)F)cn3)c2F)cn1` [Example 104, 5-(4-Cyclobutyl-2-fluoro-3-{[5-(trifluoromethyl)pyrimidin-2-yl]oxy}phenyl)pyrazin-2-amine], for which the affinity in assay [2] corresponds to a Ki of 18.3 nM.

`Nc1cnc(-c2ccc(C3CCC3)c(Oc3cnc(C(F)(F)F)cn3)c2F)cn1` [Example 105, 5-(4-Cyclobutyl-2-fluoro-3-{[5-(trifluoromethyl)pyrazin-2-yl]oxy}phenyl)pyrazin-2-amine] gave a Ki in assay [2] of 39.4 nM.

As to `Nc1cnc(-c2ccc(C3CCC3)c(Oc3ccc(C(F)(F)F)nn3)c2F)cn1` [Example 106, 5-(4-Cyclobutyl-2-fluoro-3-{[6-(trifluoromethyl)pyridazin-3-yl]oxy}phenyl)pyrazin-2-amine], the affinity in assay [2] corresponds to a Ki of 12.3 nM.

In the case of `COC(=O)c1ccc(Oc2c(C3CCC3)ccc(-c3cnc(N)cn3)c2F)nc1` [Example 107, Methyl 6-[3-(5-aminopyrazin-2-yl)-6-cyclobutyl-2-fluorophenoxy]pyridine-3-carboxylate], in assay [2], the Ki amounted to 5.4 nM.

Turning to `N#Cc1ccc(Oc2c(C3CCC3)ccc(-c3cnc(N)cn3)c2F)cn1` [Example 108, 5-[3-(5-Aminopyrazin-2-yl)-6-cyclobutyl-2-fluorophenoxy]pyridine-2-carbonitrile], the affinity in assay [2] corresponds to a Ki of 28.1 nM.

In assay [2], `N#Cc1cc(Oc2c(C3CCC3)ccc(-c3cnc(N)cn3)c2F)ccn1` [Example 109, 4-[3-(5-Aminopyrazin-2-yl)-6-cyclobutyl-2-fluorophenoxy]pyridine-2-carbonitrile] returned a Ki of 11.2 nM.

Compound `N#Cc1cccnc1Oc1c(C2CCC2)ccc(-c2cnc(N)cn2)c1F` [Example 110, 2-[3-(5-Aminopyrazin-2-yl)-6-cyclobutyl-2-fluorophenoxy]pyridine-3-carbonitrile] came in with a Ki in assay [2] of 2.6 nM.

With `N#Cc1cccc(Oc2c(C3CCC3)ccc(-c3cnc(N)cn3)c2F)n1` [Example 111, 6-[3-(5-Aminopyrazin-2-yl)-6-cyclobutyl-2-fluorophenoxy]pyridine-2-carbonitrile], the Ki in assay [2] turned out to be 2.4 nM.

`N#Cc1ncccc1Oc1c(C2CCC2)ccc(-c2cnc(N)cn2)c1F` [Example 112, 3-[3-(5-Aminopyrazin-2-yl)-6-cyclobutyl-2-fluorophenoxy]pyridine-2-carbonitrile] returned a Ki in assay [2] of 13.6 nM.

On to `Nc1cnc(-c2ccc(C3CCC3)c(Oc3ccc(C(F)(F)F)cn3)c2F)cn1` [Example 113, 5-(4-Cyclobutyl-2-fluoro-3-{[5-(trifluoromethyl)pyridin-2-yl]oxy}phenyl)pyrazin-2-amine], for which, in assay [2], the Ki worked out at 30.8 nM.

In assay [2], `Nc1cnc(-c2ccc(C3CCC3)c(Oc3ccc(S(F)(F)(F)(F)F)cc3)c2F)cn1` [Example 115, 5-{4-Cyclobutyl-2-fluoro-3-[4-(pentafluoro-lambda˜6˜-sulfanyl)phenoxy]phenyl}pyrazin-2-amine] came in with an inhibition constant Ki of 53.7 nM.

`Nc1cnc(-c2ccc(C3CCC3)c(Oc3nccc(N)n3)c2F)cn1` [Example 119, 2-[3-(5-Aminopyrazin-2-yl)-6-cyclobutyl-2-fluorophenoxy]pyrimidin-4-amine] displayed an inhibition constant (Ki) in assay [2] of 6.6 nM.

Take `Nc1cnc(-c2ccc(C3CCC3)c(Oc3ncccc3C(F)(F)F)c2F)cn1` [Example 121, 5-(4-Cyclobutyl-2-fluoro-3-{[3-(trifluoromethyl)pyridin-2-yl]oxy}phenyl)pyrazin-2-amine]: in assay [2], the Ki was 7.2 nM.

With `Nc1cnc(-c2ccc(C3CCC3)c(Oc3ncccc3Cl)c2F)cn1` [Example 122], in assay [2], affinity was put at a Ki of 3.7 nM.

For `Nc1cnc(-c2ccc(C3CCC3)c(Oc3ccnc(C(F)(F)F)n3)c2F)cn1` [Example 124, 5-(4-Cyclobutyl-2-fluoro-3-{[2-(trifluoromethyl)pyrimidin-4-yl]oxy}phenyl)pyrazin-2-amine], in assay [2], the inhibition constant Ki stood at 2.8 nM.

Compound `Cc1nccc(Oc2c(C3CCC3)ccc(-c3cnc(N)cn3)c2F)n1` [Example 134, 5-{4-Cyclobutyl-2-fluoro-3-[(2-methylpyrimidin-4-yl)oxy]phenyl}pyrazin-2-amine] displayed an inhibition constant Ki in assay [2] of 4.6 nM.

As for `Nc1cnc(-c2ccc(C3CCC3)c(Oc3ccnc(Cl)n3)c2F)cn1` [Example 137, 5-{3-[(2-Chloropyrimidin-4-yl)oxy]-4-cyclobutyl-2-fluorophenyl}pyrazin-2-amine], the Ki in assay [2] came out at 4.3 nM.

Turning to `Nc1cnc(-c2ccc(C3CCC3)c(Oc3cc(C4CC4)ncn3)c2F)cn1` [Example 141, 5-{4-Cyclobutyl-3-[(6-cyclopropylpyrimidin-4-yl)oxy]-2-fluorophenyl}pyrazin-2-amine], the inhibitory constant (Ki) in assay [2] worked out at 5.5 nM.

In assay [2], `Nc1cnc(-c2ccc(C3CCC3)c(Oc3ccc(C(=O)O)cn3)c2F)cn1` [Example 154, 6-[3-(5-Aminopyrazin-2-yl)-6-cyclobutyl-2-fluorophenoxy]pyridine-3-carboxylic acid] registered a Ki of 17.6 nM.

In the case of `N#Cc1nc(N)cnc1-c1ccc(C2CCC2)c(OCc2cccc(C(=O)O)c2)c1F` [Example 174, 3-{[3-(5-Amino-3-cyanopyrazin-2-yl)-6-cyclobutyl-2-fluorophenoxy]methyl}benzoic acid], in assay [2], the affinity corresponds to a Ki of 3.9 nM.

`COc1cc(Oc2c(C(C)(C)C)ccc(-c3cnc(N)cn3)c2F)ncn1` [Example 204, 5-{4-tert-Butyl-2-fluor-3-[(6-methoxypyrimidin-4-yl)oxy]phenyl}pyrazin-2-amine] had an inhibition constant (Ki) in assay [2] of 8.5 nM.

As to `CC(C)(C)c1ccc(-c2cnc(N)cn2)cc1OCc1ccccc1` [Example 215, 5-[3-(Benzyloxy)-4-tert-butylphenyl]pyrazin-2-amine], the inhibition constant Ki in assay [2] stood at 705 nM.

`Nc1cnc(-c2ccc(Cl)c(OCc3ccccc3)c2F)cn1` [Example 216, 5-[3-(Benzyloxy)-4-chloro-2-fluorophenyl]pyrazin-2-amine] displayed an inhibition constant Ki in assay [2] of 714 nM.

On to `Nc1cnc(-c2ccc(C3CCC3)c(OCc3ccccc3)c2)cn1` [Example 217, 5-[3-(Benzyloxy)-4-cyclobutylphenyl]pyrazin-2-amine], for which the Ki in assay [2] came to 1040 nM.

`CC(C)(C)OC(=O)N1CCCC(COc2c(C3CCC3)ccc(-c3cnc(N)cn3)c2F)C1` (stereo not drawn) [Example 249, tert-Butyl 3-((3-(5-aminopyrazin-2-yl)-6-cyclobutyl-2-fluorophenoxy)methyl)piperidine-1-carboxylate] registered a Ki in assay [2] of 282 nM.

In assay [2], `CC(C)CNc1nccc(Oc2c(C3CCC3)ccc(-c3cnc(N)cn3)c2F)n1` [Example 261, 4-(3-(5-Aminopyrazin-2-yl)-6-cyclobutyl-2-fluorophenoxy)-N-isobutylpyrimidin-2-amine trifluoroacetic acid salt] had a Ki of 2.2 nM.

In the case of `Nc1cnc(-c2ccc(C3CCC3)c(OCC3CCOCC3)c2F)cn1` [Example 264, 5-[4-Cyclobutyl-2-fluoro-3-(tetrahydro-2H-pyran-4-ylmethoxy)phenyl]pyrazin-2-amine], the inhibition constant (Ki) in assay [2] was 101 nM.

Take `Nc1cnc(-c2ccc(C3CCC3)c(OCC3CCNCC3)c2F)cn1` [Example 298, 5-[4-Cyclobutyl-2-fluoro-3-(piperidin-4-ylmethoxy)phenyl]pyrazin-2-amine hydrogen chloride salt]: in assay [2], affinity was put at a Ki of 868 nM.

For the compound `CCc1ccc(-c2cnc(N)cn2)c(F)c1Oc1ncccn1` [Example 316, 5-[4-Ethyl-2-fluoro-3-(pyrimidin-2-yloxy)phenyl]pyrazin-2-amine], the inhibition constant (Ki) in assay [2] amounted to 1360 nM.

For the compound `Nc1cnc(-c2ccc(C3CCCCC3)c(Oc3ncccn3)c2F)cn1` [Example 320, 5-(4-Cyclohexyl-2-fluoro-3-(pyrimidin-2-yloxy)phenyl)pyrazin-2-amine], in assay [2], the Ki came out at 36.5 nM.

Regarding `CCc1ccc(-c2cnc(N)cn2)c(F)c1O` [Example 333, 3-(5-Aminopyrazin-2-yl)-6-ethyl-2-fluorophenol], in assay [2], the affinity corresponds to a Ki of 421 nM.

`Nc1cnc(-c2ccc(C3CCC3)c(OCc3ccc(Br)cc3)c2F)cn1` [Example 340, 5-{3-[(4-Bromobenzyl)oxy]4-cyclobutyl-2-fluorophenyl}pyrazin-2-amine] yielded an inhibition constant (Ki) in assay [2] of 650 nM.
